According to ChEMBL document CHEMBL5126667, “Tigliane-Type Diterpene Esters from the Fruits of Shirakiopsis indica and Their Anti-HIV Activity” (J Nat Prod, 2022):

Tests used:
[1] = Therapeutic index, ratio of cytotoxicity against human MT4 cells to antiviral activity against HIV NL4-3; type: toxicity, cell-based; conditions: read-out: TI
[2] = test system: Human immunodeficiency virus; experiment: Antiviral activity against HIV NL4-3 infected in MT-4 cells assessed as viral replication measured after 4 days by p24-ELISA; type: functional, organism-based; conditions: Human immunodeficiency virus 1, NL4-3, MT4, 96 h

| Structure (SMILES) | selectivity ratio [1] | EC50 [2] [nM] |
| --- | --- | --- |
| CNc1ccccc1C(=O)O[C@@H]1[C@@H](C)[C@@]2(O)[C@@H](C=C(CO)C[C@]3(O)C(=O)C(C)=C[C@@H]23)[C@@H]2C(C)(C)[C@]12OC(C)=O | 5290 | 44 |
| CCC/C=C/C=C/C=C\C(=O)O[C@@H]1[C@@H](C)[C@]2(O)[C@@H]3C=C(C)C(=O)[C@H]3CC(CO)=C[C@H]2[C@@H]2C(C)(C)[C@]12OC(C)=O | 161 | 130 |
| CNc1ccccc1C(=O)O[C@@H]1[C@@H](C)[C@]2(O)[C@@H]3C=C(C)C(=O)[C@H]3CC(CO)=C[C@H]2[C@@H]2C(C)(C)[C@]12OC(C)=O [SAPINTOXIN A] | 1100 | 7.4 |
| Cc1cn([C@H]2C[C@H](N=[N+]=[N-])[C@@H](CO)O2)c(=O)[nH]c1=O [ZIDOVUDINE] | > 22 | 20 |
